Measured values reported in the NIST ThermoML archive (doi:10.1021/je201301b).
Numbers after ± are expanded uncertainties.

Details: 101.33 kPa, Liquid, Vibrating tube method

For `CCCCCCOCn1cc[n+](C)c1.F[B-](F)(F)F` [1-hexyloxymethyl-3-methylimidazolium tetrafluoroborate], the mass density (298.15 K) was 1153.1 ± 3.3 kg/m3, the mass density (308.15 K) was 1145.76 ± 3.2 kg/m3 and the mass density (318.15 K) was 1138.71 ± 3.2 kg/m3. It also gave a mass density (328.15 K) of 1131.65 ± 3.2 kg/m3, a mass density (338.15 K) of 1124.63 ± 3.1 kg/m3 and a mass density (348.15 K) of 1117.63 ± 3.1 kg/m3.

`CCCCCCOCn1cc[n+](COCCCCCC)c1.O=S(=O)([N-]S(=O)(=O)C(F)(F)F)C(F)(F)F` showed a mass density (298.15 K) of 1254.89 ± 3.9 kg/m3, a mass density (308.15 K) of 1246.07 ± 3.9 kg/m3 and a mass density (318.15 K) of 1237.28 ± 3.8 kg/m3. It also gave a mass density (328.15 K) of 1228.51 ± 3.8 kg/m3, a mass density (338.15 K) of 1219.66 ± 3.7 kg/m3 and a mass density (348.15 K) of 1210.87 ± 3.7 kg/m3.
